Laboratory results: ChEMBL document CHEMBL3751766, “Synthesis and evaluation of atorvastatin esters as prodrugs metabolically activated by human carboxylesterases” (Bioorg Med Chem Lett, 2016)

What was measured:
Liver carboxylesterase 1 = target: T1, Liver carboxylesterase 1 (Homo sapiens, UniProt P23141); experiment: Prodrug activation in human liver microsomes assessed as CES1-mediated compound hydrolysis at […] after 90 mins by HPLC analysis; conditions: 1.5 h
T1 sequence (P23141 whole entry): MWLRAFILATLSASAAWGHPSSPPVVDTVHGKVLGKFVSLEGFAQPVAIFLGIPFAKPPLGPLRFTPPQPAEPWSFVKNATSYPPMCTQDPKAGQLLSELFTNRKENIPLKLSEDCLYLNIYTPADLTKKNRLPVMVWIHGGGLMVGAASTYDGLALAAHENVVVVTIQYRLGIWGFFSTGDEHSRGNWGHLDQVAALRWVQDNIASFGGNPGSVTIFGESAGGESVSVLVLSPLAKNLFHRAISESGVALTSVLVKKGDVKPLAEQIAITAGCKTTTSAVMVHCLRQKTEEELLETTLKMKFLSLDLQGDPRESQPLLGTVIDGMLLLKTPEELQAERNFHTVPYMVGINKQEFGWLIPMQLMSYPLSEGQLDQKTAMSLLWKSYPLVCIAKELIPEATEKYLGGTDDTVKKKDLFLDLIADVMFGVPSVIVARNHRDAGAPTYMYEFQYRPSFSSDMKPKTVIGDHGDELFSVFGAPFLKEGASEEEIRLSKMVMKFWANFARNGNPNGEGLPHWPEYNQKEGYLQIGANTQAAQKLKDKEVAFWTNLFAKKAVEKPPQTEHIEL

Cocaine esterase = target: T2, Cocaine esterase (Homo sapiens, UniProt O00748); experiment: Prodrug activation in human intestine microsomes assessed as CES2-mediated hydrolysis of compound at […] after 90 mins by HPLC analysis; conditions: 1.5 h
T2 sequence (O00748 whole entry): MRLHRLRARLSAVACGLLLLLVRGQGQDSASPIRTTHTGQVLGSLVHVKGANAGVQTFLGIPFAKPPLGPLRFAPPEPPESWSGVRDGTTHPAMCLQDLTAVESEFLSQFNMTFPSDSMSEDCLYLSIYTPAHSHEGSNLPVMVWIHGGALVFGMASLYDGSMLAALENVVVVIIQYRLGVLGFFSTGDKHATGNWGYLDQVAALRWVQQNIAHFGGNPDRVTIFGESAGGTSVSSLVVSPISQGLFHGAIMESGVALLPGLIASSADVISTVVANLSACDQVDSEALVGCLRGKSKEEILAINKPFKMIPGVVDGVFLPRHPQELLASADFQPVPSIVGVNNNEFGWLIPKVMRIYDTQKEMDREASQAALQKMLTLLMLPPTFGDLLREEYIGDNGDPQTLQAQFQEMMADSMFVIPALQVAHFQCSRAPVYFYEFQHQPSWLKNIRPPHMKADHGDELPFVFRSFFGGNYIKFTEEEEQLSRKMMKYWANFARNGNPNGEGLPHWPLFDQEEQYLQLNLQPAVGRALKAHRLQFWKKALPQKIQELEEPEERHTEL

[1] = Drug metabolism ratio of CES1 mediated compound hydrolysis in human liver microsomes to CES2-mediated compound hydrolysis in human intestine microsomes; assay type: ADME
[2] = Prodrug activation assessed as human carboxylesterase 1b-mediated compound hydrolysis at […] after 30 mins by HPLC analysis; conditions: isolated protein, 0.5 h
[3] = Prodrug activation assessed as human carboxylesterase1c-mediated compound hydrolysis at […] after 30 mins by HPLC analysis; conditions: isolated protein, 0.5 h
[4] = target: T3, Arylacetamide deacetylase (Homo sapiens, UniProt P22760); experiment: Prodrug activation assessed as human AADAC-mediated compound hydrolysis at […] after 30 mins by HPLC analysis; conditions: 0.5 h
T3 sequence (P22760 whole entry): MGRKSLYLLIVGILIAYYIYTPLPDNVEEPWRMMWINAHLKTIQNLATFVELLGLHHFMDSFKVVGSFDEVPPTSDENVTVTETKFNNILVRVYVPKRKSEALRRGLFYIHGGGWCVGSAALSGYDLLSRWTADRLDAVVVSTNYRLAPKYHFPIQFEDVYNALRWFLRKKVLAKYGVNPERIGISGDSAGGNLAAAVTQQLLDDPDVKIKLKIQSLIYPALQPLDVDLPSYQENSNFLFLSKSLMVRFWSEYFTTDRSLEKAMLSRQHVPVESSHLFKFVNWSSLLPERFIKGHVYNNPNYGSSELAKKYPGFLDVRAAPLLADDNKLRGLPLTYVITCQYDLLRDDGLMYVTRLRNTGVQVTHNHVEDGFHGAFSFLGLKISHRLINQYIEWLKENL

CC(C)c1c(C(=O)Nc2ccccc2)c(-c2ccccc2)c(-c2ccc(F)cc2)n1CC[C@@H](O)C[C@@H](O)CC(=O)OC1CCCCC1
Drug metabolism (Liver carboxylesterase 1): metabolite_detected
Drug metabolism (Cocaine esterase): metabolite_detected
Ratio [1]: 4.9

COc1ccc(OC(=O)C[C@H](O)C[C@H](O)CCn2c(-c3ccc(F)cc3)c(-c3ccccc3)c(C(=O)Nc3ccccc3)c2C(C)C)cc1
Drug metabolism (Liver carboxylesterase 1): metabolite_detected
Drug metabolism (Cocaine esterase): metabolite_detected
Ratio [1]: 3.4

CC(C)c1c(C(=O)Nc2ccccc2)c(-c2ccccc2)c(-c2ccc(F)cc2)n1CC[C@@H](O)C[C@@H](O)CC(=O)OCc1ccccc1
Drug metabolism (Liver carboxylesterase 1): metabolite_detected
Drug metabolism (Cocaine esterase): metabolite_detected
Ratio [1]: 9.1

CCCCOC(=O)C[C@H](O)C[C@H](O)CCn1c(-c2ccc(F)cc2)c(-c2ccccc2)c(C(=O)Nc2ccccc2)c1C(C)C
Drug metabolism (Liver carboxylesterase 1): metabolite_detected
Drug metabolism (Cocaine esterase): metabolite_detected
Ratio [1]: 5.7

CC(C)c1c(C(=O)Nc2ccccc2)c(-c2ccccc2)c(-c2ccc(F)cc2)n1CC[C@@H](O)C[C@@H](O)CC(=O)Oc1ccccc1
Drug metabolism (Liver carboxylesterase 1): metabolite_detected
Drug metabolism (Cocaine esterase): metabolite_detected
Ratio [1]: 3.8

CCCCCCCCCCOC(=O)C[C@H](O)C[C@H](O)CCn1c(-c2ccc(F)cc2)c(-c2ccccc2)c(C(=O)Nc2ccccc2)c1C(C)C
Drug metabolism (Liver carboxylesterase 1): metabolite_detected
Drug metabolism (Cocaine esterase): metabolite_detected
Ratio [1]: 4.4

C=CCOC(=O)C[C@H](O)C[C@H](O)CCn1c(-c2ccc(F)cc2)c(-c2ccccc2)c(C(=O)Nc2ccccc2)c1C(C)C
Drug metabolism [2]: metabolite_detected
Drug metabolism [3]: metabolite_detected
Drug metabolism (Liver carboxylesterase 1): metabolite_detected
Drug metabolism (Cocaine esterase): metabolite_detected
Drug metabolism [4]: metabolite_detected
Ratio [1]: 5.1

CCOC(=O)C[C@H](O)C[C@H](O)CCn1c(-c2ccc(F)cc2)c(-c2ccccc2)c(C(=O)Nc2ccccc2)c1C(C)C
Drug metabolism (Liver carboxylesterase 1): metabolite_detected
Drug metabolism (Cocaine esterase): metabolite_detected
Ratio [1]: 40.1

CCCCCCCCOC(=O)C[C@H](O)C[C@H](O)CCn1c(-c2ccc(F)cc2)c(-c2ccccc2)c(C(=O)Nc2ccccc2)c1C(C)C
Drug metabolism (Liver carboxylesterase 1): metabolite_detected
Drug metabolism (Cocaine esterase): metabolite_detected
Ratio [1]: 5.3

CC(C)c1c(C(=O)Nc2ccccc2)c(-c2ccccc2)c(-c2ccc(F)cc2)n1CC[C@@H](O)C[C@@H](O)CC(=O)Oc1ccc(F)cc1
Drug metabolism [2]: metabolite_detected
Drug metabolism [3]: metabolite_detected
Drug metabolism (Liver carboxylesterase 1): metabolite_detected
Drug metabolism (Cocaine esterase): metabolite_detected
Drug metabolism [4]: metabolite_detected
Ratio [1]: 1.9

COC(=O)C[C@H](O)C[C@H](O)CCn1c(-c2ccc(F)cc2)c(-c2ccccc2)c(C(=O)Nc2ccccc2)c1C(C)C
Drug metabolism [2]: metabolite_detected
Drug metabolism [3]: metabolite_detected
Drug metabolism (Liver carboxylesterase 1): metabolite_detected
Drug metabolism (Cocaine esterase): metabolite_detected
Drug metabolism [4]: metabolite_detected
Ratio [1]: 30.5

CC(C)c1c(C(=O)Nc2ccccc2)c(-c2ccccc2)c(-c2ccc(F)cc2)n1CC[C@@H]1C[C@@H](O)CC(=O)O1 [ATORVASTATIN LACTONE]
Drug metabolism (Liver carboxylesterase 1): metabolite_notdetected
Drug metabolism (Cocaine esterase): metabolite_notdetected
Ratio [1]: 1.7
